According to ChEMBL document CHEMBL4190167 (Medchemcomm, 2016):

Assays:
HUVEC = experiment: Cytotoxicity against HUVEC assessed as effect on cell viability up to 100 uM after 24 hrs by WST1 assay; type: cell-based; settings: human
MCF7 = experiment: Cytotoxicity against human MCF7 cells assessed as effect on cell viability up to 100 uM after 24 hrs by WST1 assay; type: cell-based; settings: mcf7, 24 h

| SMILES | Activity (HUVEC) | Activity (MCF7) |
| --- | --- | --- |
| COC(=O)[C@]1(C)CCC[C@]2(C)c3cc4oc(C)nc4cc3C[C@@H](O)[C@@H]12 | Non-Toxic | Non-Toxic |
| CCOC(=O)[C@]1(C)CCC[C@]2(C)c3cc4occc4cc3C[C@@H](O)[C@@H]12 | Non-Toxic | Non-Toxic |
